This note sets out measurements from US11485741B2, “Macrocyclic toll-like receptor 7 (TLR7) agonists” (BRISTOL-MYERS SQUIBB COMPANY, priority 2018, dated 2022).

The target in experiment [1] is T1, human TLR7 (Homo sapiens, UniProt Q9NYK1).
T1 construct: host or cells: HEK-Blue TLR7 cells (engineered human embryonic kidney cells)
T1 sequence (Q9NYK1 27-1049): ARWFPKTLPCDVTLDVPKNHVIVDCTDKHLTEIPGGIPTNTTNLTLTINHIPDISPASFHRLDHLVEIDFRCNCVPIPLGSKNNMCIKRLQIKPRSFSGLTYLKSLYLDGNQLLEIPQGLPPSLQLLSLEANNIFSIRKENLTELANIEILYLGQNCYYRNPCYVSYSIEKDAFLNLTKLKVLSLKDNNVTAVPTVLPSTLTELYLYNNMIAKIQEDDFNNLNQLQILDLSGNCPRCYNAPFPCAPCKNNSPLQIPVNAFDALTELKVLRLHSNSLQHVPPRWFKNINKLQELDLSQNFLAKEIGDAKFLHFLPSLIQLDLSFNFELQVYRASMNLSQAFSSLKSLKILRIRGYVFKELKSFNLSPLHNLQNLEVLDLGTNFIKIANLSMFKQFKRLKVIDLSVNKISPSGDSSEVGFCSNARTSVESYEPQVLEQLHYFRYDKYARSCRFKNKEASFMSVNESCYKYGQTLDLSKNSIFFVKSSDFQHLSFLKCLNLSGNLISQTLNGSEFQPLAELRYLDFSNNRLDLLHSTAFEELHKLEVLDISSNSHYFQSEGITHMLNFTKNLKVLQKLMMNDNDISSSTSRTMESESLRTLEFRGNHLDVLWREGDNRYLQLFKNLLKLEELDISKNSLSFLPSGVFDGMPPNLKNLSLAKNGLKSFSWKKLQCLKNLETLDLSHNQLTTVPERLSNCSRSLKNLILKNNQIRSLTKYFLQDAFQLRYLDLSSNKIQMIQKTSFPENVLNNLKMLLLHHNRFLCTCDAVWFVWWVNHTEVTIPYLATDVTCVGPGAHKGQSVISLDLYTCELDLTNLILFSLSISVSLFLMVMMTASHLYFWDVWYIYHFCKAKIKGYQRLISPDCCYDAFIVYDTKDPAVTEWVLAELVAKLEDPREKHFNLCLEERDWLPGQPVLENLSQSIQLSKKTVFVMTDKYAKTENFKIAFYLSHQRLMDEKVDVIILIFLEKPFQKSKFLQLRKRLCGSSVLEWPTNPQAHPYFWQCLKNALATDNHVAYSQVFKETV
Put plainly: HEK-Blue TLR7 reporter assay (SEAP reporter). Type of experiment: cell-based. Conditions: HEK-Blue TLR7 cells, 18 h treatment, SEAP readout; average if more than one assay; read-out: TLR7 Agonism HEK Blue ™ Assay EC50. An excerpt:
Table A presents biological activity data for compounds disclosed herein. One set of data relates TLR7 agonism activity using the HEK-Blue™ TLR7 reporter assay, as described in Example 11 hereinbelow. Another set of data relates to the induction of interleukin 6 (IL-6), a cytokine that plays an important role in the TLR7 pathway. […] In some instances, more that one TLR7 agonism or IL-6 induction assay was made; if so, the reported value is an average.
This example describes a method for assaying TLR7 agonist activity of the compounds disclosed in this specification.
HEK-Blue™ TLR7 cells were added to each well of a 384-well tissue-culture plate (15,000 cells per well) and incubated 16-18 h at 37° C., 5% CO2. Compounds (100 nl) were dispensed into wells containing the HEK-Blue™ TLR cells and the treated cells were incubated at 37° C., 5% CO2. After 18 h treatment ten microliters of freshly-prepared Quanti-Blue™ reagent (Invivogen) was added to each well, incubated for 30 min (37° C., 5% CO2) and SEAP levels measured using an Envision plate reader (OD=620 nm). […] EC50's can be determined with software such as Graphpad Prism™.
On the technique in general: A reporter such as luciferase makes a cellular process visible.

Experiment [2] deals with interleukin 6 (IL-6). As to the kind of experiment: Interleukin 6 induction assay in human whole blood (AlphaLISA). Type of experiment: cell-based. The settings on record: Homo sapiens, 20 h, 20 h at 37° C., 100% set by resiquimod reference at 10 μM, average if more than one assay, read-out: IL-6 Induction EC50 (nM) (normalized 10 μM). An excerpt:
Table A presents biological activity data for compounds disclosed herein. One set of data relates TLR7 agonism activity using the HEK-Blue™ TLR7 reporter assay, as described in Example 11 hereinbelow. Another set of data relates to the induction of interleukin 6 (IL-6), a cytokine that plays an important role in the TLR7 pathway. […] In some instances, more that one TLR7 agonism or IL-6 induction assay was made; if so, the reported value is an average. This example describes a method for assaying interleukin 6 (IL 6) induction by compounds disclosed in this specification. Compounds suspended in DMSO were transferred to individual wells of a Matrix Technologies clear, V-bottom 384-well plate using ECHO acoustic liquid handling technology (25 nL per well). Human whole-blood samples (25 uL) were added to each well using a CyBio FeliX liquid handling instrument and the plate was shaken on a plate shaker for three minutes before incubating the reaction mixtures at 37° C. for 20 h. Basel RPMI 1640 medium (supplemented with L-glutamine) was then added to each well (25 uL per well) prior to liberating plasma from each sample by centrifugation (450×g, 5 min, ambient temperature). Treated plasma samples (3 uL) were subsequently transferred to individual wells of a white, shallow, 384-well ProxiPlate (PerkinElmer) using the FeliX liquid handling instrument and their IL6 levels were measured using AlphaLISA technology as described by the manufacturer (PerkinElmer).

Regarding `Nc1nc2nc3c1nc(O)n3Cc1cccc(c1)C/C=C/CCO2` [Compound B1, reference compound], the EC50 (as a rule, the concentration that produces a half-maximal response) in experiment [1] was determined as 210 nM.
Still for that read-out and setting: for `Nc1nc2nc3c1nc(O)n3Cc1cccc(c1)C/C=C\CCO2` [Compound B2, reference compound] the value was 33 nM.
Regarding `Nc1nc2nc3c1nc(O)n3Cc1ccc(O)c(c1)C/C=C/CCO2` [Compound B3, reference compound], the values for the EC50 in experiment [1] and in experiment [2] were 68 nM and 400 nM, respectively.
With `Nc1nc2nc3c1nc(O)n3Cc1ccc(O)c(c1)C/C=C\CCO2` [Compound B4, reference compound], the half-maximal effective concentration (EC50) in experiment [1] is 17 nM; in experiment [2], 960 nM.
With `Nc1nc2nc3c1nc(O)n3Cc1ccc(O)c(c1)CCCCCO2` [Compound B5, reference compound], the EC50 in experiment [1] came out at 580 nM.
On the same count and under the same terms, for `Nc1nc2nc3c1nc(O)n3Cc1ccc(Oc3ccc(CO)cc3)c(c1)C/C=C/CCO2` [IIa-01] the value was 51 nM.
In the case of `Nc1nc2nc3c1nc(O)n3Cc1ccc(Oc3ccc(CNC4CC4)cc3)c(c1)C/C=C/CCO2` [IIa-02], the concentration giving a half-maximal response (EC50) in experiment [1] was determined as 4 nM; in experiment [2], 5.2 nM.
For `Nc1nc2nc3c1nc(O)n3Cc1ccc(Oc3cccc(CNC4CC4)c3)c(c1)C/C=C/CCO2` [IIa-03] the same measures were 5.3 nM and 47 nM.
The corresponding values for `Nc1nc2nc3c1nc(O)n3Cc1ccc(Oc3ccc(CNC4CC4)cc3)c(c1)C/C=C\CCO2` [IIa-04] are 0.91 nM and 4.4 nM.
For `Nc1nc2nc3c1nc(O)n3Cc1ccc(Oc3cccc(CNC4CC4)c3)c(c1)C/C=C\CCO2` [IIa-05] the same measures were 7.2 nM and 18 nM.
For `Nc1nc2nc3c1nc(O)n3Cc1ccc(Oc3ccc(CNC4CCC4)cc3)c(c1)C/C=C\CCO2` [IIa-06], the EC50 came to 1 nM in experiment [1] and 2.2 nM in experiment [2].
For `Nc1nc2nc3c1nc(O)n3Cc1ccc(Oc3cccc(CNC4CCC4)c3)c(c1)C/C=C\CCO2` [IIa-07] the same measures were 4.2 nM and 2.9 nM.
For `COCCNCc1ccc(Oc2ccc3cc2C/C=C/CCOc2nc(N)c4nc(O)n(c4n2)C3)cc1` [IIa-09] the same measures were 2.2 nM and 1.9 nM.
On to `COC(=O)CNCc1ccc(Oc2ccc3cc2C/C=C/CCOc2nc(N)c4nc(O)n(c4n2)C3)cc1` [IIa-10], for which the 50% effective concentration (EC50) in experiment [1] was determined as 4.3 nM; in experiment [2] it was 50 nM.
The corresponding values for `Nc1nc2nc3c1nc(O)n3Cc1ccc(Oc3ccc(CNC4CC4)cc3)c(c1)CCCCCO2` [IIa-11] are 6.6 nM and 5.5 nM.
The corresponding values for `Nc1nc2nc3c1nc(O)n3Cc1ccc(Oc3cccc(CNC4CC4)c3)c(c1)CCCCCO2` [IIa-12] are 29 nM and 110 nM.
For `Nc1nc2nc3c1nc(O)n3Cc1cc(cc(Oc3ccc(CNC4CCC4)cc3)c1)C/C=C\CCO2` [IIa-13] the same measures were 0.94 nM and 13 nM.
As for `Nc1nc2nc3c1nc(O)n3Cc1cc(cc(Oc3cccc(CNC4CCC4)c3)c1)C/C=C/CCO2` [IIa-14], the figures for the EC50 in experiment [1] and in experiment [2] were 19 nM and 140 nM, respectively.
The corresponding values for `Nc1nc2nc3c1nc(O)n3Cc1cc(cc(Oc3ccc(CNC4CC4)cc3)c1)C/C=C\CCO2` [IIa-15] are 9.2 nM and 57 nM.
With `Nc1nc2nc3c1nc(O)n3Cc1cc(cc(Oc3ccc(CNC4CCC4)cc3)c1)CCCCCO2` [IIa-16], the concentration giving a half-maximal response (EC50) in experiment [1] was determined as 42 nM; in experiment [2], 250 nM.
For `Nc1nc2nc3c1nc(O)n3Cc1cc(cc(Oc3ccc(CNC4CCC4)cc3)c1)C/C=C/CCO2` [IIa-17] the same measures were 8.5 nM and 44 nM.
For `Nc1nc2nc3c1nc(O)n3Cc1cc(cc(Oc3ccc(CNC4CC4)cc3)c1)C/C=C/CCO2` [IIa-18] the same measures were 10 nM and 32 nM.
For `Nc1nc2nc3c1nc(O)n3Cc1ccc(Oc3ccc(C(=O)NC4CNC4)cc3)c(c1)C/C=C\CCO2` [IIa-19] the same measures were 25 nM and 95 nM.
For `Nc1nc2nc3c1nc(O)n3Cc1ccc(Oc3cccc(C(=O)NC4CNC4)c3)c(c1)C/C=C\CCO2` [IIa-20], the 50% effective concentration (EC50) in experiment [1] came out at 15 nM; in experiment [2], 91 nM.
Take `Nc1nc2nc3c1nc(O)n3Cc1ccc(-c3cnn(CCNC4CC4)c3)c(c1)C/C=C/CCO2` [IIb-01]: the EC50 came out at 0.67 nM in experiment [1] and 42 nM in experiment [2].
The corresponding values for `Nc1nc2nc3c1nc(O)n3Cc1ccc(-c3cnn(CCNC4CC4)c3)c(c1)C/C=C\CCO2` [IIb-02] are 0.35 nM and 1.3 nM.
For `Nc1nc2nc3c1nc(O)n3Cc1ccc(-c3cnn(CCNC4CC4)c3)c(c1)CCCCCO2` [IIb-03] the same measures were 2.9 nM and 65 nM.
For `Nc1nc2nc3c1nc(O)n3Cc1ccc(-c3ccc(CNC4CC4)nc3)c(c1)C/C=C/CCO2` [IIb-04] the same measures were 0.28 nM and 10 nM.
With `Nc1nc2nc3c1nc(O)n3Cc1ccc(-c3ccc(CNC4CCC4)nc3)c(c1)C/C=C/CCO2` [IIb-05], the results for the EC50 in experiment [1] and in experiment [2] were 0.22 nM and 0.62 nM, respectively.
The corresponding values for `Nc1nc2nc3c1nc(O)n3Cc1ccc(-c3cn[nH]c3)c(c1)C/C=C/CCO2` [IIb-06] are 21 nM and 570 nM.
For `Nc1nc2nc3c1nc(O)n3Cc1ccc(-c3cnn(CCNC4CCC4)c3)c(c1)C/C=C/CCO2` [IIb-07] the same measures were 0.22 nM and 1.6 nM.
For `Nc1nc2nc3c1nc(O)n3Cc1ccc(-c3cnn(CCNC4CCC4)c3)c(c1)CCCCCO2` [IIb-08], the EC50 was 1.7 nM in experiment [1] and 6.2 nM in experiment [2].
The corresponding values for `Nc1nc2nc3c1nc(O)n3Cc1ccc(-c3cnn(CCNC4CCC4)c3)c(c1)C/C=C\CCO2` [IIb-09] are 0.35 nM and 2.1 nM.
The corresponding values for `Nc1nc2nc3c1nc(O)n3Cc1ccc(-c3ccc(CNC4CCC4)cc3)c(c1)C/C=C/CCO2` [IIb-10] are 1.1 nM and 0.41 nM.
`Nc1nc2nc3c1nc(O)n3Cc1ccc(-c3ccc(CNC4COC4)cc3)c(c1)C/C=C\CCO2` [IIb-33]: the EC50 in experiment [1] amounted to 0.42 nM.
Still for that read-out and setting: the result for `Nc1nc2nc3c1nc(O)n3Cc1ccc(-c3cnn(C4CNC4)c3)c(c1)C/C=C/CCO2` [IIb-35] reads 1.5 nM; that for `Nc1nc2nc3c1nc(O)n3Cc1ccc(-c3cnn(C4CCNCC4)c3)c(c1)C/C=C/CCO2` [IIb-36], 1 nM.
Same read-out and setting: for `Nc1nc2nc3c1nc(O)n3Cc1ccc(-c3cnn(CC(=O)NC4CNC4)c3)c(c1)C/C=C\CCO2` [IIb-39] the value was 1.6 nM.
Turning to `CCOCc1nc2c(N)nc3ccccc3c2n1CC(C)(C)O` [Resiquimod, resiquimod, reference compound], in experiment [2], the concentration giving a half-maximal response (EC50) is 350 nM.
